Data from ChEMBL document CHEMBL3352147, “Synthesis and structure-activity relationship of 4-azaheterocycle benzenesulfonamide derivatives as new microtubule-targeting agents” (Bioorg Med Chem Lett, 2014).
pIC50: −log10 of the molar value. Active and inactive are the calls of the source. The rule behind the calls is not given here.

Tests used:
[1] = target: T1, Tubulin alpha (Homo sapiens) (UniProt P0DPH7+P68366+Q71U36+P68363+Q9BQE3+Q6PEY2+A6NHL2+Q9NY65); assay: Inhibition of tubulin alpha in human LoVo cells assessed as effect on tubulin intensity level at 20 nM; type: cell-based
[2] = target: T1, Tubulin alpha (Homo sapiens); assay: Inhibition of tubulin alpha in human LoVo cells assessed as effect on tubulin intensity level at 100 nM; type: cell-based
[3] = target: T1, Tubulin alpha (Homo sapiens); assay: Inhibition of tubulin alpha in human LoVo cells assessed as effect on microtubule spindles at 100 nM after 24 hrs; type: cell-based
[4] = tested on: HepG2; assay: Antiproliferative activity against human HepG2 cells assessed as inhibition of cell proliferation by MTT assay; type: functional, cell-based
[5] = Antiproliferative activity against human HCT116 cells assessed as inhibition of cell proliferation by MTT assay; type: functional, cell-based; conditions: HCT-116
[6] = target: T1, Tubulin alpha (Homo sapiens); assay: Inhibition of tubulin alpha in human LoVo cells assessed as effect on microtubule spindles at 20 nM after 24 hrs; type: cell-based
[7] = Antiproliferative activity against human SKOV3 cells assessed as inhibition of cell proliferation by MTT assay; type: functional, cell-based; conditions: SK-OV-3
[8] = Antiproliferative activity against human PC3 cells assessed as inhibition of cell proliferation by MTT assay; type: functional, cell-based; conditions: PC-3
[9] = Antiproliferative activity against HEK293T cells assessed as inhibition of cell proliferation at 10 uM by MTT assay; type: cell-based, HEK-293T; conditions: human
[10] = Antiproliferative activity against human BGC823 cells assessed as inhibition of cell proliferation at 10 uM by MTT assay; type: functional; conditions: BGC-823
[11] = tested on: A549; assay: Antiproliferative activity against human A549 cells assessed as inhibition of cell proliferation at 10 uM by MTT assay; type: functional
[12] = tested on: Jurkat; assay: Antiproliferative activity against human Jurkat cells assessed as inhibition of cell proliferation at 10 uM by MTT assay; type: functional

SMILES | inhibition [1] | inhibition [2] | inhibition [3] | pIC50 [4] | inhibition [6] | pIC50 [5] | pIC50 [7] | pIC50 [8] | inhibition at 10 µM [9] | inhibition at 10 µM [10] | inhibition at 10 µM [11] | inhibition at 10 µM [12]
O=S(=O)(c1ccc(-c2cnc(C3CC3)o2)cc1)N1CCCCC1 | – | – | – | < 4.00 | – | < 4.00 | < 4.00 | < 4.00 | – | – | – | –
O=S(=O)(c1ccc(-c2nnc(C3CC3)o2)cc1)N1CCc2ccccc21 | – | – | – | – | – | – | – | – | -13.8% | 27.7% | 63.7% | 31.7%
O=S(=O)(c1ccc(-c2cnc(C3CC3)o2)cc1)N1CCc2cc(F)ccc21 | – | – | – | – | – | – | – | – | 25.7% | 18.3% | 36.1% | 24.3%
O=c1[nH]n(S(=O)(=O)c2ccc(-c3cnc(C4CC4)o3)cc2)c2ccccc12 | – | – | – | 6.00 | – | 6.09 | 6.32 | 5.83 | 80.9% | 83.7% | 66.5% | 94.7%
C=Cc1ncc(-c2ccc(S(=O)(=O)N3CCc4ccccc43)cc2)o1 | – | – | – | 4.59 | – | 5.88 | 5.95 | – | – | – | – | –
CCc1ncc(-c2ccc(S(=O)(=O)N3CCc4ccccc43)cc2)o1 | – | – | – | < 4.00 | – | 6.51 | 6.81 | – | – | – | – | –
CS(=O)(=O)c1ccc2c(c1)CCN2S(=O)(=O)c1ccc(-c2cnc(C3CC3)o2)cc1 | – | – | – | – | – | – | – | – | 6.54% | 28.3% | 4.14% | 13%
N#Cc1ccc2c(c1)CCN2S(=O)(=O)c1ccc(-c2cnc(C3CC3)o2)cc1 | – | – | – | – | – | – | – | – | 37.4% | 29.6% | 28.4% | 15.8%
O=S(=O)(c1ccc(-c2cnc(C3CC3)o2)cc1)N1CC2(CCCCC2)c2ccccc21 | – | – | – | 4.87 | – | 5.21 | 5.28 | 5.18 | 76% | 84.1% | 58.4% | 94.8%
O=S(=O)(c1ccc(-c2cnc(C3CC3)s2)cc1)N1CCc2ccccc21 | – | – | – | – | – | – | – | – | -15.4% | 38.5% | -10.1% | 29.8%
O=S(=O)(c1ccc(-c2cnc(C3CC3)o2)cc1)n1ccc2ccccc21 | – | – | – | – | – | – | – | – | 10.9% | 37.9% | 77.6% | 13.9%

Further lines, with some results ahead:

inhibition [1] | inhibition [2] | inhibition [3] | pIC50 [4] | inhibition [6] | SMILES | pIC50 [5] | pIC50 [7] | pIC50 [8] | inhibition at 10 µM [9] | inhibition at 10 µM [10] | inhibition at 10 µM [11] | inhibition at 10 µM [12]
Active | Active | Active | 7.26 | Active | COc1ccc2c(c1)CCN2S(=O)(=O)c1ccc(-c2cnc(C3CC3)o2)cc1 | 6.95 | 7.41 | 7.09 | – | – | – | –
– | – | – | 6.56 | – | O=[N+]([O-])c1ccc2c(c1)N(S(=O)(=O)c1ccc(-c3cnc(C4CC4)o3)cc1)CC2 | 6.74 | 6.94 | 7.85 | 77.8% | 97.7% | 50.3% | 96.7%
Active | Active | Active | 7.24 | Active | O=S(=O)(c1ccc(-c2cnc(C3CC3)o2)cc1)N1CCc2ccccc21 | 6.98 | 7.26 | 7.21 | – | – | – | –
Active | Active | Active | – | Active | O=S(=O)(c1ccc(-c2cnc(C3CC3)o2)cc1)N1CCCc2ccccc21 | – | – | – | – | – | – | –
– | – | – | 5.66 | – | O=S(=O)(c1ccc(-c2cnc(C3CC3)o2)cc1Cl)N1CCc2ccccc21 | 6.37 | 6.66 | – | – | – | – | –
– | – | – | 6.53 | – | Cc1ccc2c(c1)CCN2S(=O)(=O)c1ccc(-c2cnc(C3CC3)o2)cc1 | 6.63 | 6.70 | 6.72 | 74.7% | 79.1% | 63.4% | 91.1%
– | – | – | 4.78 | – | CC1Cc2ccccc2N1S(=O)(=O)c1ccc(-c2cnc(C3CC3)o2)cc1 (stereo unspecified) | 4.84 | 4.91 | 4.69 | 61.3% | 81.8% | 52.4% | 89.9%
– | – | – | 6.61 | – | O=S(=O)(c1ccc(-c2cnc(C3CC3)o2)cc1)N1CCc2ccc(Cl)cc21 | 6.59 | 6.84 | 6.86 | 71.9% | 87.4% | 63.6% | 95.5%
– | – | – | 4.73 | – | O=S(=O)(c1ccc(-c2cnc(C3CC3)o2)cc1F)N1CCc2ccccc21 | 6.77 | 6.86 | – | – | – | – | –
– | – | – | 5.78 | – | O=[N+]([O-])c1ccc2c(c1)CCN2S(=O)(=O)c1ccc(-c2cnc(C3CC3)o2)cc1 | 5.93 | 5.89 | 5.72 | 48.4% | 87.5% | 73.1% | 92.4%
